# From patent US4948782A, “A method of promoting the growth of domestic animals with erythromycin derivative containing composition” (Kitasato Kenkyusho, priority 1987, dated 1990)
# Like-named read-outs stand apart in the source and are kept apart here.
# How the values were obtained:
# cockerels of broilers = experiment: Survival rate and growing rate of cockerels of broilers fed the compound in rye-rations for 14 days; format: in vivo, cockerels of broilers (Habbard); conditions: for Gain (Ratio): control = 100.0; for Gain: mean
# Description: The feeds prepared by adding 0, 1.0, 10.0 and 100.0 ppm of 8,9-anhydroerythromycin A 6,9-hemiketal propargyl chloride respectively to rye-rations, were given to 160 cockerels of broilers (Habbard) of day zero, as 10 cockerels/group×4 repeats/ section, and allowed to be taken freely and continuously for 14 days. The cockerels were positioned to be accommodated for each groups by the Latin square method in an electrically heated battery brooder (the inside thereof is heated at a temperature of 32° C.). The survival rate and the growing rate were measured at 7 and 14 days of age.
# Experimental Example 2 was repeated except for changing the administration compound to ethyl-nor-8,9-anhydroerythromycin A 6,9-hemiketal. The result of measuring the survival rate and the growing rate in cockerals of broilers (Habbard) of day zero was shown in Table 8.
# Clostridium perfringens = format: in vivo
# Escherichia coli NIHJ = experiment: MIC, Escherichia coli NIHJ (EC); format: cell-based
# [1] = system: Klebsiella pneumoniae ATCC 10031; experiment: MIC, Klebsiella pneumoniae ATCC 10031 (KP); format: cell-based; conditions: ATCC10031; Klebsiella pneumoniae ATCC 10031; read-out: MIC KP
# [2] = system: Staphylococcus aureus ATCC 6538P; experiment: MIC, Staphylococcus aureus ATCC 6538P (SA(1)); format: cell-based; conditions: Staphylococcus aureus, ATCC6538P, Staphylococcus aureus ATCC 6538P; read-out: MIC SA (1)
# Text: (§1) The minimum inhibitory concentrations (MIC: mcg/ml) of the erythromycin derivatives of the present invention and the control erythromycin derivative (*) as the known growth promoting agent on typical test bacteria are shown in the following Tables 1 to 5.
# SA(1): Staphylococcus aureus ATCC 6538P
# Bacillus cereus IFO 3001 = experiment: MIC, Bacillus cereus IFO 3001 (BC); format: cell-based; conditions: Bacillus cereus, IFO3001, Bacillus cereus IFO 3001; read-out: MIC BC
# Bacillus subtilis = experiment: MIC, Bacillus subtilis (BS); format: cell-based; conditions: read-out: MIC BS
# [3] = system: Staphylococcus aureus FDA 209P; experiment: MIC, Staphylococcus aureus FDA 209P (SA(2)); format: cell-based; conditions: Staphylococcus aureus, FDA209P, Staphylococcus aureus FDA 209P; read-out: MIC SA (2)
# Text: as §1
# SA(2): Staphylococcus aureus FDA 209P
structure (smiles),measurement,setting,value
"C#CC[N+](C)(C)[C@H]1C[C@@H](C)O[C@@H](O[C@@H]2[C@@H](C)[C@H](O[C@H]3C[C@@](C)(OC)[C@@H](O)[C@H](C)O3)[C@@H](C)C(=O)O[C@H](CC)[C@@](C)(O)[C@H](O)[C@@H](C)C3=C(C)C[C@@]2(C)O3)[C@@H]1O [8,9-anhydroerythromycin A 6,9-hemiketal propargyl chloride]",Survival rate,"cockerels of broilers; 1.0 ppm in feed, 0-7 days",97.5%
same,Gain (Ratio),"cockerels of broilers; 1.0 ppm in feed, 0-7 days",105.7
same,Gain,"cockerels of broilers; 1.0 ppm in feed, 0-7 days",84.1 g/cockerel
same,Survival rate,"cockerels of broilers; 1.0 ppm in feed, 0-14 days",97.5%
same,Gain (Ratio),"cockerels of broilers; 1.0 ppm in feed, 0-14 days",105.3
same,Gain,"cockerels of broilers; 1.0 ppm in feed, 0-14 days",258.2 g/cockerel
same,Survival rate,"cockerels of broilers; 10.0 ppm in feed, 0-7 days",100.0%
same,Gain (Ratio),"cockerels of broilers; 10.0 ppm in feed, 0-7 days",105.0
same,Gain,"cockerels of broilers; 10.0 ppm in feed, 0-7 days",83.5 g/cockerel
same,Survival rate,"cockerels of broilers; 10.0 ppm in feed, 0-14 days",100.0%
same,Gain (Ratio),"cockerels of broilers; 10.0 ppm in feed, 0-14 days",103.7
same,Gain,"cockerels of broilers; 10.0 ppm in feed, 0-14 days",254.3 g/cockerel
same,Survival rate,"cockerels of broilers; 100.0 ppm in feed, 0-7 days",100.0%
same,Gain (Ratio),"cockerels of broilers; 100.0 ppm in feed, 0-7 days",111.4
same,Gain,"cockerels of broilers; 100.0 ppm in feed, 0-7 days",88.6 g/cockerel
same,Survival rate,"cockerels of broilers; 100.0 ppm in feed, 0-14 days",100.0%
same,Gain (Ratio),"cockerels of broilers; 100.0 ppm in feed, 0-14 days",107.4
same,Gain,"cockerels of broilers; 100.0 ppm in feed, 0-14 days",263.3 g/cockerel
same,Number of Cl. perfringens,"Clostridium perfringens; 1.0 ppm (section 2), day 0",2.0 log CFU/g
same,Number of Cl. perfringens,"Clostridium perfringens; 1.0 ppm (section 2), day 7",6.1 log CFU/g
same,Number of Cl. perfringens,"Clostridium perfringens; 10.0 ppm (section 3), day 0",2.0 log CFU/g
same,Number of Cl. perfringens,"Clostridium perfringens; 10.0 ppm (section 3), day 7",4.9 log CFU/g
same,Number of Cl. perfringens,"Clostridium perfringens; 100.0 ppm (section 4), day 0",2.0 log CFU/g
same,Number of Cl. perfringens,"Clostridium perfringens; 100.0 ppm (section 4), day 7",6.2 log CFU/g
CCC[N+](C)(C)[C@H]1C[C@@H](C)O[C@@H](O[C@@H]2[C@@H](C)[C@H](O[C@H]3C[C@@](C)(OC)[C@@H](O)[C@H](C)O3)[C@@H](C)C(=O)O[C@H](CC)[C@@](C)(O)[C@H](O)[C@@H](C)C3O[C@]2(C)CC3C)[C@@H]1O (stereo partly drawn) [Compound 64],MIC,Escherichia coli NIHJ,> 100 µg/mL
same,MIC,[1],> 100 µg/mL
same,MIC,[2],> 100 µg/mL
same,MIC,Bacillus cereus IFO 3001,> 100 µg/mL
same,MIC,Bacillus subtilis,> 100 µg/mL
same,MIC,[3],> 100 µg/mL
CCCC[N+](C)(C)[C@H]1C[C@@H](C)O[C@@H](O[C@@H]2[C@@H](C)[C@H](O[C@H]3C[C@@](C)(OC)[C@@H](O)[C@H](C)O3)[C@@H](C)C(=O)O[C@H](CC)[C@@](C)(O)[C@H](O)[C@@H](C)C3O[C@]2(C)CC3C)[C@@H]1O (stereo partly drawn) [Compound 65],MIC,Escherichia coli NIHJ,> 100 µg/mL
same,MIC,[1],> 100 µg/mL
same,MIC,[2],100 µg/mL
same,MIC,Bacillus cereus IFO 3001,100 µg/mL
same,MIC,Bacillus subtilis,50 µg/mL
same,MIC,[3],100 µg/mL
C=CC[N+](C)(C)[C@H]1C[C@@H](C)O[C@@H](O[C@@H]2[C@@H](C)[C@H](O[C@H]3C[C@@](C)(OC)[C@@H](O)[C@H](C)O3)[C@@H](C)C(=O)O[C@H](CC)[C@@](C)(O)[C@H](O)[C@@H](C)C3O[C@]2(C)CC3C)[C@@H]1O (stereo partly drawn) [Compound 66],MIC,Escherichia coli NIHJ,> 100 µg/mL
same,MIC,[1],> 100 µg/mL
same,MIC,[2],100 µg/mL
same,MIC,Bacillus cereus IFO 3001,100 µg/mL
same,MIC,Bacillus subtilis,100 µg/mL
same,MIC,[3],100 µg/mL
C#CC[N+](C)(C)[C@H]1C[C@@H](C)O[C@@H](O[C@@H]2[C@@H](C)[C@H](O[C@H]3C[C@@](C)(OC)[C@@H](O)[C@H](C)O3)[C@@H](C)C(=O)O[C@H](CC)[C@@](C)(O)[C@H](O)[C@@H](C)C3O[C@]2(C)CC3C)[C@@H]1O (stereo partly drawn) [Compound 67],MIC,Escherichia coli NIHJ,> 100 µg/mL
same,MIC,[1],> 100 µg/mL
same,MIC,[2],> 100 µg/mL
same,MIC,Bacillus cereus IFO 3001,> 100 µg/mL
same,MIC,Bacillus subtilis,> 100 µg/mL
same,MIC,[3],> 100 µg/mL
C#CC[N+](C)(C)[C@H]1C[C@@H](C)O[C@@H](O[C@@H]2[C@@H](C)[C@H](O[C@H]3C[C@@](C)(OC)[C@@H](O)[C@H](C)O3)[C@@H](C)C(=O)O[C@H](CC)[C@@](C)(O)[C@H](O)[C@@H](C)C3O[C@]2(C)CC3C)[C@@H]1OC(C)=O (stereo partly drawn) [Compound 68],MIC,Escherichia coli NIHJ,> 100 µg/mL
same,MIC,[1],> 100 µg/mL
same,MIC,[2],> 100 µg/mL
same,MIC,Bacillus cereus IFO 3001,> 100 µg/mL
same,MIC,Bacillus subtilis,> 100 µg/mL
same,MIC,[3],> 100 µg/mL
CC[C@H]1OC(=O)[C@H](C)[C@@H](O[C@H]2C[C@@](C)(OC)[C@@H](O)[C@H](C)O2)[C@H](C)[C@@H](O[C@@H]2O[C@H](C)C[C@H](N(C)CC)[C@H]2O)[C@@]2(C)CC(C)C(O2)[C@H](C)[C@@H](O)[C@]1(C)O (stereo partly drawn) [Compound 69],MIC,Escherichia coli NIHJ,> 100 µg/mL
same,MIC,[1],> 100 µg/mL
same,MIC,[2],> 100 µg/mL
same,MIC,Bacillus cereus IFO 3001,> 100 µg/mL
same,MIC,Bacillus subtilis,> 100 µg/mL
same,MIC,[3],> 100 µg/mL
CC[C@H]1OC(=O)[C@H](C)[C@@H](O[C@H]2C[C@@](C)(OC)[C@@H](O)[C@H](C)O2)[C@H](C)[C@@H](O[C@@H]2O[C@H](C)C[C@H]([N+](C)(C)C)[C@H]2O)[C@@]2(C)CC(C)C3(O[C@@]1(C)[C@H](O)[C@H]3C)O2 (stereo partly drawn) [Compound 70],MIC,Escherichia coli NIHJ,> 100 µg/mL
same,MIC,[1],> 100 µg/mL
same,MIC,[2],> 100 µg/mL
same,MIC,Bacillus cereus IFO 3001,> 100 µg/mL
same,MIC,Bacillus subtilis,> 100 µg/mL
same,MIC,[3],> 100 µg/mL
